Reference: patent US11673927B2, “Antitumor agent targeting HGF-regulated tyrosine kinase substrate (HGS)” (TOKYO METROPOLITAN INSTITUTE OF MEDICAL SCIENCE, priority 2018, dated 2023)

Legend:
COLO 205 cells = test: In vivo Xenograft test; design: species or system BALB/c Slc-nu/nu nude mice; settings: for tumor growth inhibitory effect compared with OP12-462, OP10-507 and OP10-527: COLO 205 xenograft, same method as Example 2 1.(2), FIGS. 6A to 6C; for tumor growth of COLO 205 cells (tumor volume): nude mice, 5 mg/kg body weight, tail vein, once daily Day 0 to Day 9, versus PBS
Method: COLO 205 cells (1E+6 cells/0.2 ml PBS) were inoculated subcutaneously into the back of BALB/c Slc-nu/nu nude mice (female) (n=5 or 6). The day after 10 days was set as Day 0, and PBS or the test oligopeptides (OP12-462, OP10-507 and OP10-527) (5 mg/kg body weight) was administered as a 0.2 ml PBS solution in the tail vein once daily for 10 days from Day 0 to Day 9. The size of the tumor formed was measured once daily from Day 0. The tumor volume was estimated by measuring the minor axis and major axis of the tumor (tumor volume=(semi-minor axis×semi-minor axis×semi-major axis×π)/6).
With the same method as in the above “[Example 2] 1. (2)”, the tumor growth inhibitory ability was evaluated for OP10-7, OP10-10 and OP10-11, which are typical examples of conventional HGS/C constituent oligopeptides.

mouse melanoma B16 cells [1] = test: Experimental lung metastasis inhibition test; type: in vivo, C57BL/6 mice; settings: B16 cells incubated with 40 nmol oligopeptide 2 hours, tail vein, colonies counted after 28 days, versus vehicle
Method: The metastasis inhibitory effect of OP12-462 on the experimental lung metastasizing ability of mouse melanoma B16 cells was examined.
First, a PBS solution (0.2 ml PBS) of mouse melanoma B16 cells (1E+5 cells) and the test oligopeptide (OP12-462) (40 nmol) was incubated at 37° C. for 2 hours. After incubation, this solution was administered to C57BL/6 mice (female) in the tail vein. The number of B16 cell metastatic tumor colonies in the mouse lung was counted 28 days after the tail vein administration of B16 cells. The ability of the oligopeptide OP12-462 to inhibit metastasis was quantified as the relative ratio of the number of the tumor colonies treated with the oligopeptide to the number of tumor colonies of B16 cells untreated with the oligopeptide.
As was in the above “1. (3)”, an experimental lung metastasis inhibition test was conducted on the oligopeptide OP12-462 and the OP12-462 alanine substituted peptides.

[2] = test system: B16 cells or COLO 205 cells; test: In vitro anchorage-independent growth inhibition test of OP12-462 alanine substituted peptides; type: cell-based; settings: compared with the sample untreated with an oligopeptide (vehicle) or with OP12-462, FIG. 5
Description: (§1) In the present example, the Ultra-Low Attachment Surface Corning Costar 96 Well Cell Culture Plate 3474 (Corning) was used as an Ultra-Low Attachment Surface (ULAS) plate, and Tissue Culture Treated Corning Costar 96 Well Cell Culture Plate 3595 (Corning) was used as a normal plate.
(§2) As cells, mouse melanoma B16 cells and human colorectal cancer-derived COLO 205 cells were used, and Cell Counting Kit-8 (Dojindo Laboratories) was used to evaluate cell growth.
(§3) B16 cells or COLO 205 cells (2E+3 cells/0.2 ml Opti-MEM medium, 5% FBS/well) were seeded in each well of the ULAS plate and normal plate. The test oligopeptides (OP12-462, OP10-507 and OP10-527) (0, 0.16, 0.4, 8 nmol) were each added and cultured at 37° C.
(§4) After 7 days, 0.1 ml of Cell Counting Kit-8 solution (5-fold PBS diluted solution) was added, and the absorbance A450 nm was immediately measured and set as the TO blank value.
(§5) After incubating at 37° C. for 2 hours, the absorbance A450 nm was measured again and set as T2. The change=T2−T0 was defined as the anchorage-independent growth activity value or the anchorage-dependent growth activity value. The cell growth activity when adding a test oligopeptide was quantified as the relative ratio to the cell growth activity when no test oligopeptide was added.
As was in the above “1. […]

[3] = test system: human colorectal cancer-derived COLO 205 cells; test: In vitro anchorage-independent growth inhibition test (ULAS plate), COLO 205; type: cell-based; settings: ULAS plate, 0, 0.16, 0.4, 8 nmol, 7 days, FIG. 2B
Description: (§6) Cancer cells proliferate in an anchorage-independent manner, and normal cells proliferate in an anchorage-dependent manner.
as §1, §2, §3, §4, §5

mouse melanoma B16 cells [4] = test: In vitro anchorage-independent growth inhibition test (ULAS plate), B16; type: cell-based; settings: ULAS plate, 0, 0.16, 0.4, 8 nmol, 7 days, FIG. 2A
Description: as §6, §1, §2, §3, §4, §5

mouse melanoma B16 cells [5] = test: In vitro anchorage-dependent growth inhibition test (normal plate), B16; type: cell-based; settings: normal plate, 0, 0.16, 0.4, 8 nmol, 7 days, FIG. 2A
Description: as §6, §1, §2, §3, §4, §5

[6] = target: T1, GST-labeled HGS (Human) Recombinant Protein (Homo sapiens, UniProt O14964); test: SPR interaction screening with immobilized GST-labeled HGS; type: binding; settings: ProteOn XPR36, GST value as blank
T1 construct: purchased Abnova
Method: (§7) Specifically, Glutathione S-transferase (GST)-labeled HGS (Human) Recombinant Protein (Abnova), GST-labeled STAM (Human) Recombinant Protein (Abnova), or GST (Abnova) was immobilized on a ProteOn™ GLH sensor chip.
(§8) The interactions between the HGS/C constituent oligopeptides and these immobilized proteins were measured using the ProteOn™ XPR36 interaction array system (Bio-Rad). Using the GST value as a blank value, the dissociation rate constants (Kd) of the HGS/C-constituent oligopeptides with each of GST-labeled HGS and GST-labeled STAM were measured.

[7] = test system: human colorectal cancer-derived COLO 205 cells; test: In vitro anchorage-dependent growth inhibition test (normal plate), COLO 205; type: cell-based; settings: normal plate, 0, 0.16, 0.4, 8 nmol, 7 days, FIG. 2B
Description: as §6, §1, §2, §3, §4, §5

[8] = target: T2, GST-labeled STAM (Human) Recombinant Protein (Homo sapiens, UniProt Q92783); test: SPR interaction screening with immobilized GST-labeled STAM; type: binding; settings: ProteOn XPR36, GST value as blank
T2 construct: purchased Abnova
T2 sequence (Q92783 1-540): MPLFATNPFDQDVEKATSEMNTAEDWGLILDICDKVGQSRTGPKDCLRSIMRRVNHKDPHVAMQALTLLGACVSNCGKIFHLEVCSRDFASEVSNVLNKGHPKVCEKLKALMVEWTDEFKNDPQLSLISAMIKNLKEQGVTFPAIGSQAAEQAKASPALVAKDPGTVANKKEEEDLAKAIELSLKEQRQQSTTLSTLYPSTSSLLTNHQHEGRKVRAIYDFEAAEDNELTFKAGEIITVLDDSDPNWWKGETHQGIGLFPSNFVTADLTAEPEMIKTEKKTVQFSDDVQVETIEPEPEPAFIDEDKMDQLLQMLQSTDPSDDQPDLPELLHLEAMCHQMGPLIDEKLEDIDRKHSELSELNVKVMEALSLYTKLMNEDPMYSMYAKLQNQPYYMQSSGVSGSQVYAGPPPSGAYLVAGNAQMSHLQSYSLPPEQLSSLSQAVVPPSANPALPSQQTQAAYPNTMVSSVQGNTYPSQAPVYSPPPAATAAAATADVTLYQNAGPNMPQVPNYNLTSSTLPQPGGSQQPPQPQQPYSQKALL
Method: as §7, §8

T1 sequence (O14964 whole entry): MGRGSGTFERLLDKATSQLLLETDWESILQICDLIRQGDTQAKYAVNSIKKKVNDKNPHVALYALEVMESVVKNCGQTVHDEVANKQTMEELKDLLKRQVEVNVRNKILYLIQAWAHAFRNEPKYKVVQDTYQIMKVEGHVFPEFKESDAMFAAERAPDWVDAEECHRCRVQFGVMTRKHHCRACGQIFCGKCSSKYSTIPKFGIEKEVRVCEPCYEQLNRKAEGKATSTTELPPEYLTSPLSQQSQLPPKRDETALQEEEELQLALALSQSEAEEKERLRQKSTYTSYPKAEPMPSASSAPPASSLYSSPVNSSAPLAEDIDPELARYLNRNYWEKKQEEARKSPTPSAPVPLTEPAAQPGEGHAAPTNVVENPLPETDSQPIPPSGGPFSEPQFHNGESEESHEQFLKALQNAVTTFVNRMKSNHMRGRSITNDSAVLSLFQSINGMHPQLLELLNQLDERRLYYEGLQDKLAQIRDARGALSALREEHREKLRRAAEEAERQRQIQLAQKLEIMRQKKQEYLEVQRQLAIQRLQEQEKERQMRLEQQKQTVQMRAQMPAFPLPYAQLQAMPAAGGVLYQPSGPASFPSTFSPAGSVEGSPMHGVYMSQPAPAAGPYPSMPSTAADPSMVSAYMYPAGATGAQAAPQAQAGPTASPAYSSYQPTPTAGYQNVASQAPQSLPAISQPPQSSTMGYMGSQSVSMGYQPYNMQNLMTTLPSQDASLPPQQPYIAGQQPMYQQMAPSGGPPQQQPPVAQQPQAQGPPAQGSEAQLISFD

Row | Sequence | tumor growth inhibitory effect compared with OP12-462, OP10-507 and OP10-527 (COLO 205 cells) | tumor growth of COLO 205 cells (tumor volume) (COLO 205 cells) | experimental lung metastasizing ability of mouse melanoma B16 cells (number of lung tumor colonies) (mouse melanoma B16 cells [1]) | anchorage-independent growth activity [3] | anchorage-independent growth activity (mouse melanoma B16 cells [4]) | anchorage-dependent growth activity (mouse melanoma B16 cells [5]) | interaction with HGS, dissociation rate constant (Kd) as index [6] | anchorage-dependent growth activity [7] | interaction with STAM, dissociation rate constant (Kd) as index [8] | also measured
1 | ALSALREEHR [OP10-7, conventional HGS/C constituent oligopeptide] | remarkably lower | a tumor growth inhibitory effect was observed |  |  |  |  |  |  |  | 
2 | ERALYYEGLQDK [OP12-462-A3] |  |  | remarkably inhibited |  |  |  |  |  |  | in vitro anchorage-independent growth [2]: equally to or more than OP12-462
3 | ERRAYYEGLQDK [OP12-462-A4] |  |  | remarkably inhibited |  |  |  |  |  |  | 
4 | ERRLYYEGAQDK [OP12-462-A9] |  |  | remarkably inhibited |  |  |  |  |  |  | 
5 | ERRLYYEGLQDK [OP12-462] |  | statistically significantly inhibited | remarkably inhibited | strongly inhibited | strongly inhibited | did not inhibit at all or hardly inhibited | enhanced interaction | did not inhibit at all or hardly inhibited | enhanced interaction | 
6 | EYLEVQRQLA [OP10-11, conventional HGS/C constituent oligopeptide] | remarkably lower | a tumor growth inhibitory effect was observed |  |  |  |  |  |  |  | 
7 | KLEIMRQKKQ [OP10-10, conventional HGS/C constituent oligopeptide] | remarkably lower | a tumor growth inhibitory effect was observed |  |  |  |  |  |  |  | 
8 | QIQLAQKLEI [OP10-507] |  | statistically significantly inhibited |  | strongly inhibited | strongly inhibited | did not inhibit at all or hardly inhibited | strong interaction | did not inhibit at all or hardly inhibited | strong interaction | 
9 | RRLYYEGLQD [OP10-463] |  |  |  |  |  |  | strong interaction |  | strong interaction | 
10 | VQRQLAIQRL [OP10-527] |  | statistically significantly inhibited |  | strongly inhibited | strongly inhibited | did not inhibit at all or hardly inhibited | strong interaction | did not inhibit at all or hardly inhibited | strong interaction | 
